Experimental data published in the supplement of paper PMC11061612.

Key:
[1] = compound: CC(=O)Nc1cccc(-n2c(=O)n(C3CC3)c(=O)c3c(Nc4ccc(I)cc4F)n(C)c(=O)c(C)c32)c1 [Trametinib]; details: max 1 µM
Method in brief: (§1)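 In 1536-well plates, cancer cell lines in 7.5 μl DMEM/F12 or RPMI with 10% FBS spent 24 hours at 37°C and 5% CO2 and were then dosed for 72 hours with final DMSO typically 0.2%. Viability was read by CellTiter-Glo 2.0 luminescence and scaled between blank-well and DMSO-well means. The single-agent IC50 was fitted from dose responses using a logistic curve in a non-linear mixed effects model, and that logistic curve had two parameters.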

[2] = compound: CC(C)n1c(=O)n(C)c2cnc3cc(F)c(-c4ccc(OCCCN5CCCCC5)nc4)cc3c21 [AZD1390]; details: max 0.3 µM
Method in brief: as §1

[3] = compound: COc1nnc2ccc(N3CCC(c4ccc(OCCN5CCN(C)C(=O)[C@H]5C)cc4)CC3)nn12 [AZD5153]; details: max 1 µM
Method in brief: as §1

[4] = compound: CC1=CN2[C@@H](C1)C=NC3=CC(=C(C=C3C2=O)OC)OCCCCCOC4=C(C=C5C(=C4)N=C[C@@H]6CC(=CN6C5=O)C)OC [SG3199]; details: max 0.001 µM
Method in brief: as §1

[5] = compound: COc1cc2ncnc(Nc3ccc(F)c(Cl)c3)c2cc1OCCCN1CCOCC1 [Gefitinib]; details: max 10 µM
Method in brief: as §1

[6] = compound: C[C@@H](Nc1cc(F)cc(F)c1)c1cc(C(=O)N(C)C)cc2c(=O)cc(N3CCOCC3)oc12 [AZD8186]; details: max 3 µM
Method in brief: as §1

[7] = compound: CN(C)CCCOc1ccc(-c2ccc3ncc4c(c3c2)n(C2CCOCC2)c(=O)n4C)cn1 [AZD0156]; details: max 3 µM
Method in brief: as §1

[8] = compound: C1CN(CCC1(C(=O)N[C@@H](CCO)C2=CC=C(C=C2)Cl)N)C3=NC=NC4=C3C=CN4 [Capivasertib]; details: max 10 µM
Method in brief: as §1

[9] = compound: C[C@@H](Oc1cc(-c2cnn(C3CCNCC3)c2)cnc1N)c1c(Cl)ccc(F)c1Cl [Crizotinib]; details: max 10 µM
Method in brief: as §1

[10] = compound: CS(=O)(=O)CCNCc1ccc(-c2ccc3ncnc(Nc4ccc(OCc5cccc(F)c5)c(Cl)c4)c3c2)o1 [Lapatinib]; details: max 10 µM
Method in brief: as §1

[11] = compound: CC1=C(C(=CC=C1)Cl)NC(=O)C2=CN=C(S2)NC3=CC(=NC(=N3)C)N4CCN(CC4)CCO [Dasatinib]; details: max 2 µM
Method in brief: as §1

[12] = compound: COc1cccc2c1C(=O)c1c(O)c3c(c(O)c1C2=O)C[C@@](O)(C(=O)CO)C[C@@H]3O[C@H]1C[C@H](N)[C@H](O)[C@H](C)O1 [Doxorubicin]; details: max 1 µM
Method in brief: as §1

[13] = compound: CCN(CCO)CCCOc1ccc2c(Nc3cc(CC(=O)Nc4cccc(F)c4)[nH]n3)ncnc2c1 [AZD2811]; details: max 1 µM
Method in brief: as §1

[14] = compound: Cc1c2c(nn1C)CSCc1cc(n(C)n1)CSc1cc(c3ccccc3c1)OCCCc1c(C(=O)O)n(C)c3c-2c(Cl)ccc13 [AZD5991]; details: max 1 µM
Method in brief: as §1

[15] = compound: CN(CC[C@H](CSC1=CC=CC=C1)NC2=C(C=C(C=C2)S(=O)(=O)NC(=O)C3=CC=C(C=C3)N4CCC(CC4)[C@H](C5=CC=CC=C5C6=CC=C(C=C6)Cl)O)S(=O)(=O)C(F)(F)F)CCO [AZD4320]; details: max 1 µM
Method in brief: as §1

[16] = compound: C[C@@H](c1ccc2nccn2c1)n1nnc2ncc(-c3cnn(C)c3)nc21 [Savolitinib]; details: max 1 µM
Method in brief: as §1

[17] = compound: O=C(c1cc(Cc2n[nH]c(=O)c3ccccc23)ccc1F)N1CCN(C(=O)C2CC2)CC1 [Olaparib]; details: max 10 µM
Method in brief: as §1

[18] = compound: COc1cccc(OCCCN)c1-c1cc(Nc2cnc(C#N)cn2)n[nH]1 [Prexasertib]; details: max 1 µM
Method in brief: as §1

[19] = compound: CC(=O)c1c(C)c2cnc(Nc3ccc(N4CCNCC4)cn3)nc2n(C2CCCC2)c1=O [Palbociclib]; details: max 10 µM
Method in brief: as §1

[20] = compound: Cc1nc(-c2cn3c(n2)-c2ccc(-c4cnn(C(C)(C)C(N)=O)c4)cc2OCC3)n(C(C)C)n1 [Taselisib]; details: max 10 µM
Method in brief: as §1

[21] = compound: Cn1cnc2c(F)c(Nc3ccc(Br)cc3Cl)c(C(=O)NOCCO)cc21 [Selumetinib]; details: max 10 µM
Method in brief: as §1

[22] = compound: CCc1c2c(nc3ccc(O)cc13)-c1cc3c(c(=O)n1C2)COC(=O)[C@]3(O)CC [SN-38]; details: max 0.3 µM
Method in brief: as §1

[23] = compound: COc1cc(Nc2ncc3c(n2)-c2ccc(Cl)cc2C(c2c(F)cccc2OC)=NC3)ccc1C(=O)O [Alisertib]; details: max 10 µM
Method in brief: as §1

[24] = compound: C=CCn1c(=O)c2cnc(Nc3ccc(N4CCN(C)CC4)cc3)nc2n1-c1cccc(C(C)(C)O)n1 [AZD1775]; details: max 3 µM
Method in brief: as §1

[25] = compound: Cc1cc2ncnn2cc1Nc1ncc2c(n1)n(C1CCOCC1)c(=O)n2C [AZD7648]; details: max 10 µM
Method in brief: as §1

[26] = compound: C[C@@H]1COCCN1C2=NC(=NC(=C2)C3(CC3)[S@](=N)(=O)C)C4=C5C=CNC5=NC=C4 [AZD6738]; details: max 10 µM
Method in brief: as §1

[27] = compound: CC1(C)CCC(CN2CCN(c3ccc(C(=O)NS(=O)(=O)c4ccc(NCC5CCOCC5)c([N+](=O)[O-])c4)c(Oc4cnc5[nH]ccc5c4)c3)CC2)=C(c2ccc(Cl)cc2)C1 [Venetoclax]; details: max 1 µM
Method in brief: as §1

Cell Line	IC50, cell viability 72 h [1]	IC50, cell viability 72 h [2]	IC50, cell viability 72 h [3]	IC50, cell viability 72 h [4]	IC50, cell viability 72 h [5]	IC50, cell viability 72 h [6]	IC50, cell viability 72 h [7]	IC50, cell viability 72 h [8]	IC50, cell viability 72 h [9]	IC50, cell viability 72 h [10]	IC50, cell viability 72 h [11]	IC50, cell viability 72 h [12]	IC50, cell viability 72 h [13]	IC50, cell viability 72 h [14]	IC50, cell viability 72 h [15]	IC50, cell viability 72 h [16]	IC50, cell viability 72 h [17]	IC50, cell viability 72 h [18]	IC50, cell viability 72 h [19]	IC50, cell viability 72 h [20]	IC50, cell viability 72 h [21]	IC50, cell viability 72 h [22]	IC50, cell viability 72 h [23]	IC50, cell viability 72 h [24]	IC50, cell viability 72 h [25]	IC50, cell viability 72 h [26]	IC50, cell viability 72 h [27]
AM-38 (Glioblastoma)	0.0717 µM	> 0.3 µM	> 1 µM	> 0.001 µM	> 10 µM	> 3 µM	> 3 µM	> 10 µM	> 10 µM	> 10 µM	> 2 µM	0.694 µM	> 1 µM	> 1 µM	> 1 µM	> 1 µM	> 10 µM	0.126 µM	> 10 µM	> 10 µM	3.75 µM	0.0227 µM	> 10 µM	2.61 µM	> 10 µM	4.8 µM	> 1 µM
BHT-101 (Thyroid Gland Carcinoma)	0.0182 µM	> 0.3 µM	0.0601 µM	> 0.001 µM	> 10 µM	> 3 µM	> 3 µM	> 10 µM	8.67 µM	> 10 µM	1.1 µM	> 1 µM	> 1 µM	> 1 µM	> 1 µM	> 1 µM	> 10 µM	0.293 µM	9.12 µM	6.45 µM	1.36 µM	0.0309 µM	1.85 µM	> 3 µM	> 10 µM	9.26 µM	> 1 µM
CL-11 (Colorectal Carcinoma)	0.0335 µM	> 0.3 µM	0.224 µM	> 0.001 µM	> 10 µM	> 3 µM	> 3 µM	> 10 µM	> 10 µM	> 10 µM	> 2 µM	> 1 µM	> 1 µM	> 1 µM	> 1 µM	> 1 µM	> 10 µM	0.0903 µM	> 10 µM	> 10 µM	1.06 µM	0.0579 µM	0.527 µM	0.859 µM	> 10 µM	3.04 µM	> 1 µM
DBTRG-05MG (Glioblastoma)	> 1 µM	> 0.3 µM	> 1 µM	> 0.001 µM	> 10 µM	> 3 µM	> 3 µM	> 10 µM	> 10 µM	> 10 µM	> 2 µM	> 1 µM	> 1 µM	> 1 µM	> 1 µM	> 1 µM	> 10 µM	> 1 µM	> 10 µM	> 10 µM	> 10 µM	> 0.3 µM	> 10 µM	> 3 µM	> 10 µM	> 10 µM	> 1 µM
